The test system of data set [1] is Musca domestica CAR21 (insecticide susceptible) strain. Description: Topical synergist 24-hour mortality assay, CAR21 house flies. It is filed as in vivo. The settings on record: for % Dead / Alive / Dead: CAR21, topical doses; for % Dead: 24-hour mortality; for maximum sublethal dose: for both strains (CAR21, KS17); for Alive / Dead: number of flies, pooled of 4 replicates, 24-hour.

The subject of data set [2] is Musca domestica KS17 (insecticide resistant) strain. Kind of data set: Topical synergist 24-hour mortality assay, KS17 house flies. Format: in vivo. As to conditions: topical doses; for % Dead: 24-hour mortality; for Alive / Dead: number of flies, pooled of 4 replicates, 24-hour.
The test system of data set [3] is Aedes aegypti LVP (SP-susceptible) strain L3 larvae. Kind of data set: Larval dose-mortality (dose response) assay, LVP strain. It is filed as in vivo. As to conditions: for LC50: Aedes aegypti, read-out: Lethal Concentration (LC50). An excerpt: (§1) Results represent n=3 biological replicates.
The subject of data set [4] is Aedes aegypti PRS (SP-resistant) strain L3 larvae. Description: Larval dose-mortality (dose response) assay, PRS strain. Format: in vivo. The settings on record: for LC50: Aedes aegypti, PRS L3 larvae, read-out: Lethal Concentration (LC50).
Source text: as §1

In data set [5] the test system is Aedes aegypti LVP (SP-susceptible) strain 3-5 day old adults. Description: Adult dose-mortality assay, LVP strain. Format: in vivo. As to conditions: for LC50: Aedes aegypti, read-out: Lethal Dose (LC50).
Data set [6] deals with Aedes aegypti PRS (SP-resistant) strain 3-5 day old adults. Kind of data set: Adult dose-mortality assay, PRS strain. It is filed as in vivo. The settings on record: for LC50: Aedes aegypti, PRS adults.
The test system of data set [7] is Aedes aegypti LVP (SP-susceptible) strain L3 larvae. Description: Larval mortality-time assay, LVP strain. As to conditions: table row says LC50 LVP dose, text LC90 dose. Format: in vivo. An excerpt: Results represent n=3 biological replicates. Lethal time (LT50) of post topical exposure to a Lethal Concentration (LC90) dose is shown in comparison to SP and the technical grade synthetic pyrethroid, Deltamethrin.

Data set [8] has the same test system. Description: Qcide combinations larval dose-mortality assay, LVP strain. It is filed as in vivo. Here is the method: (§2) Results represent n=3 biological replicates. […] The Synergistic Ratio (SR) and P-value are shown. Mosquito mortality is shown for A and B: LVP at 24 and 48 hours. […] Mosquito mortality is shown for A and B: PRS at 24 and 48 hours.
(§3) Results represent n=3 biological replicates. […] The Synergistic Ratio (SR) and P-value are shown.

Data set [9] relates to Aedes aegypti PRS (SP-resistant) strain L3 larvae. Kind of data set: Qcide combinations larval dose-mortality assay, PRS strain. Format: in vivo. Here is the method: as §2, §3
In data set [10] the test system is Aedes aegypti LVP (SP-susceptible) strain L3 larvae. The settings on record: data from a previous study, cited from earlier work.
Data set [11] relates to Aedes aegypti PRS (SP-resistant) strain L3 larvae. The settings on record: data from a previous study, cited from earlier work.
Where [12] appears, read: 24 h, Permethrin alone (Table 4).
Where [13] appears, read: 24 h, Permethrin alone (Table 5).
[14] abbreviates: 48 h, Permethrin alone (Table 4).
The mark [15] stands for this setting: 48 h, Permethrin alone (Table 5).

Data on four compounds can be found in patent publication US20260248127A1, “IMPROVED PESTICIDAL COMPOSITIONS AND PEST CONTROL METHODS” (priority 2022, published 2026).

Converted amounts (≈) assume the structure as drawn. “And” between values parts separate entries of the source, which are not always exact repeats. Equal values may be shown once. Read-outs that look alike come from different tables or passages of the source.

Regarding `CCCCOCCOCCOCc1cc2c(cc1CCC)OCO2` [PBO, piperonyl butoxide], in [1], the “% Dead” value was 0.0%, the Alive is 80 and the Dead is 0. Moreover, the maximum sublethal dose in data set [1] (topical) was determined as 10 μg/fly. Also, in data set [2], the “% Dead” value is reported as 3.9%, the Alive was found to be 74 and the Dead is on record as 3.

Take `CC1(C)C(C=C(Cl)Cl)C1C(=O)OCc1cccc(Oc2ccccc2)c1` (stereo not drawn) [Permethrin, permethrin]: the “Lethal Concentration (LC50)” value in data set [3] (24 hours post exposure) came out at 0.0259 µg/mL. In addition, the LC50 in [3] (24 h, 24 hours post exposure) amounted to 0.026 µg/mL (≈ 0.0664 µM); in data set [3] (48 h, 48 hours post exposure) it was 0.0252 µg/mL (≈ 0.0644 µM); in data set [3] (72 h, 72 hours post exposure), 0.0214 µg/mL (≈ 0.0547 µM); in data set [4] (24 hours post exposure) it was 0.7 µg/mL (≈ 1.79 µM); in data set [4] (48 hours post exposure), 0.6 µg/mL (≈ 1.53 µM); in data set [4] (72 hours post exposure), 0.6 µg/mL (≈ 1.53 µM). The LC50 in data set [5] (24 h, 24 hours post exposure) amounted to 0.543 µg/mL (≈ 1.39 µM); in data set [5] (48 h, 48 hours post exposure), 0.505 µg/mL (≈ 1.29 µM); in [6] (24 hours post exposure, read-out: Lethal Dose (LC50)), 130 µg/mL (≈ 332 µM); in [6] (24 hours, read-out: LC50) it was 130 µg/mL (≈ 332 µM); in data set [6] (48 hours post exposure, read-out: Lethal Dose (LC50)), 120 µg/mL (≈ 307 µM); in data set [8] (setting [12]) it was 0.0205 µg/mL. Moreover, the LC50 is 0.0237 µg/mL in data set [8] (setting [13]); 0.0181 µg/mL in data set [8] (setting [14]); 0.0217 µg/mL in [8] (setting [15]); 2.1 µg/mL in data set [9] (setting [12]); 1.21 µg/mL in data set [9] (setting [13]); 1.3 µg/mL in data set [9] (setting [14]). In data set [9] (setting [15]), the LC50 stood at 0.87 µg/mL. The “resistance of PRS strain larvae as compared to LVP strain” value in data set [4] (L3 larvae, under assay conditions) is listed as “approx. 25 fold”. The “Lethal Dose (LC50)” value in data set [5] (24 hours post exposure) is 0.5429 µg/mL. For the same compound, the “resistance of PRS strain adults as compared to LVP” value in data set [6] (adults, under assay conditions) is reported as “approximately 240 fold”. Moreover, in [7], the “Lethal Time (LT50)” value is 5.5 h and 5.6 h. For the same compound, the “% Dead” value in [1] came to 7.5%; in data set [2] it was 3.8%. In addition, the LD50 dose in data set [1] (CAR21 strain, topical) turned out to be 12 ng/fly. The Alive came out at 74 in data set [1] and 77 in data set [2]. In addition, the Dead is 6 in [1] and 3 in [2].

For the compound `CC1(C)[C@H](C(=O)O[C@H](C#N)c2cccc(Oc3ccccc3)c2)[C@@H]1C=C(Br)Br` [Deltamethrin], the “Lethal Time (LT50)” value in data set [7] is 5.6 h and 5.5 h.

For the compound `CC(C)C(=O)C1C(=O)C(C)(C)C(=O)C(C)(C)C1=O` [Flavesone, flavesone], the “% Dead” value in [1] is listed as 0.0%. Besides, in [1] (topical), the maximum sublethal dose came out at 0.3 % v/v. In addition, in [1], the Alive amounted to 80. Also, the Dead in [1] turned out to be 0. Further, the “Lethal Concentration (LC50)” value is 41 µg/mL in data set [10] (24 hours, listed as flavesone); 40.9 µg/mL in data set [10] (24 hours); 40.5 µg/mL in [10] (48 hours); 39.7 µg/mL in data set [10] (72 hours); 39 µg/mL in [11] (24 hours, listed as flavesone); 38.7 µg/mL in data set [11] (24 hours). Also, the “Lethal Concentration (LC50)” value in data set [11] (48 hours) and in [11] (72 hours) was 37.1 µg/mL each time.
